Laboratory results as given in paper PMC3436892, “Novel African Trypanocidal Agents: Membrane Rigidifying Peptides” (PLoS ONE, 2012).

Assays:
[1] = test system: interfacial region of the plasma membrane of BSF T. b. brucei; assay: TMA-DPH fluorescence anisotropy (interfacial membrane rigidity); assay type: cell-based, Trypanosoma brucei brucei; conditions: live BSF cells 3×10^6 cells/mL in PBS, 0.5 µM TMA-DPH, 37°C, increasing SHP concentrations, triplicate (Fig. 2b)
Description: The plasma membrane rigidity of live T. b. brucei was determined by measuring the fluorescence depolarization of diphenyl-1,3,5- hexatriene p-toluenesulfonate (DPH) or 1-(4-trimethylammoniumphenyl)-6-diphenyl-1,3,5- hexatriene p-toluenesulfonate (TMA-DPH; Invitrogen T204). Cells were washed 3 times with and resuspended in phosphate buffered saline at a density of 3×10^6 cells/mL. The anisotropic probes were added to a final concentration of 0.5 µM and allowed to intercalate into the cell membrane for 1 h in the dark. Anisotropic values were acquired via the software function of a PerkinElmer Life Sciences LS55 spectrofluorometer. Samples were excited at 358 nm, and emission was read at 430 nm, with 10-nm excitation and emission slit widths. Temperature was maintained at 37°C by means of the PerkinElmer LS55 Biokinetics accessory. Data were corrected for light scattering with an unlabeled sample of cells, and anisotropy was calculated according to the equation r = (IVV - GIVH)/(IVV + 2GIVH), where r is the anisotropy value, IVV is the emission intensity acquired with the excitation- and emission-polarizing filters set vertically, G is the instrument correction factor, and IVH is the emission intensity acquired with the excitation-polarizing filter set vertically and the emission-polarizing filter set horizontally. […]

[2] = Parallax analysis of tryptophan penetration depth; assay type: physicochemical; conditions: 500 nM peptide, PBS, 37°C, 22 h
Description: The hydrocarbon penetration depth of tryptophans spaced throughout synthetic peptides corresponding to SHP-1 or SHP-3 (Table S1) was determined by parallax analysis with brominated phosphatidylcholine liposomes. Large unilamellar liposomes composed of egg phosphatidylcholine and 10 mol % 1-palmitoyl-2-(6,7-dibromo)stearoyl-sn-glycero-3-phosphocholine (shallow quencher) or 1-palmitoyl-2-(9,10-dibromo)stearoyl-sn-glycero-3-phosphocholine (deep quencher) were constructed by hydration of a thin dry lipid film with phosphate buffered saline. Resulting multilamellar liposomes were made unilameller via extrusion through polycarbonate filters with 0.1 µm pores. Peptides (500 nM) were incubated with 200 µg/ml liposomes in phosphate buffered saline at 37°C for 22 h. Tryptophan fluorescence at 357 nm was measured from at least triplicate trials in the PerkinElmer Life Sciences LS55 spectrofluorometer and an excitation wavelength of 280 nm for SHP-1 and 290 nm for SHP-2, 10 nm excitation and 9 nm emission slit widths. The distance of tryptophans from the bilayer center (ZCF) is calculated from the equation [12]: [drawing 1] Where LC1 is the distance from the center of the bilayer to the shallow quencher, in this case 10.8 Å for 6,7-dibromo-PC [25], F1 is the intensity of tryptophan in the presence of the shallow quencher and F2 is the tryptophan intensity in the presence of the deep quencher, C is the mole fraction of quencher divided by the area of individual phospholipid (70 Å^2), and L21 is the difference in the depth of the two quenchers (2.7 Å). The hydrocarbon insertion depth of tryptophans is then given by one half the bilayer thickness, 29 Å [25], minus ZCF.

For “SDLGAVISLLLWGRQLFA [SHP-1, trypanocidal small hydrophobic peptide derived from an apolipoprotein, with characteristics of a secretory signal peptide]”, the “interfacial rigidity of the plasma membrane (TMA-DPH fluorescence depolarization)” value [1] was “increased the interfacial rigidity”, the “distance of tryptophan at position 1 from the membrane interface” value ([2]; Trp-substituted variant W1, 200 µg/ml egg PC liposomes with 10 mol % 6,7- or 9,10-dibromo-PC, bilayer thickness 29 Å, at least triplicate) was “approximately 1.1 Å” and the “distance of tryptophan at position 8 from the membrane interface” value ([2]; Trp-substituted variant W8, 200 µg/ml brominated egg PC liposomes) was “approximately 7.8 Å”. The “distance of tryptophan at position 18 from the membrane interface” value ([2]; Trp-substituted variant W18, 200 µg/ml brominated egg PC liposomes) was roughly 2.0 Å, the “distance of tryptophan at position 12 from the membrane interface” value ([2]; native tryptophan, 200 µg/ml brominated egg PC liposomes) was roughly 5.1 Å and the “F1/F2 ± S.D.” value ([2]; ratio of tryptophan fluorescence intensity (357 nm) with shallow (6,7-dibromo-PC, F1) and deep (9,10-dibromo-PC, F2) quencher, 200 µg/ml liposomes, at least triplicate) was 0.9676 ± 0.0560.
